Experiment: Long-term stability in spiked pooled human plasma

| SMILES | Long-term stability, 1 month, -20°C Accuracy [%] (validation standard 2xLLOV) | Long-term stability, 1 month, -80°C Accuracy [%] (validation standard 2xLLOV) | Long-term stability, 2 month, -20°C Accuracy [%] (validation standard 2xLLOV) | Long-term stability, 2 month, -80°C Accuracy [%] (validation standard 2xLLOV) | Long-term stability, 3 month, -20°C Accuracy [%] (validation standard 2xLLOV) | Long-term stability, 3 month, -80°C Accuracy [%] (validation standard 2xLLOV) | Long-term stability, 6 weeks, 4°C, without daylight Accuracy [%] (validation standard 2xLLOV) | Long-term stability, 1 month, -20°C Accuracy [%] (validation standard LLOV) | Long-term stability, 1 month, -80°C Accuracy [%] (validation standard LLOV) | Long-term stability, 2 month, -20°C Accuracy [%] (validation standard LLOV) | Long-term stability, 2 month, -80°C Accuracy [%] (validation standard LLOV) | Long-term stability, 3 month, -20°C Accuracy [%] (validation standard LLOV) | Long-term stability, 3 month, -80°C Accuracy [%] (validation standard LLOV) | Long-term stability, 6 weeks, 4°C, without daylight Accuracy [%] (validation standard LLOV) | Long-term stability, 1 month, -20°C Accuracy [%] (validation standard MOV) | Long-term stability, 1 month, -80°C Accuracy [%] (validation standard MOV) | Long-term stability, 2 month, -20°C Accuracy [%] (validation standard MOV) | Long-term stability, 2 month, -80°C Accuracy [%] (validation standard MOV) | Long-term stability, 3 month, -20°C Accuracy [%] (validation standard MOV) | Long-term stability, 3 month, -80°C Accuracy [%] (validation standard MOV) | further results |
| --- | --- | --- | --- | --- | --- | --- | --- | --- | --- | --- | --- | --- | --- | --- | --- | --- | --- | --- | --- | --- | --- |
| CC(C)(C)c1nc(-c2cccc(NS(=O)(=O)c3c(F)cccc3F)c2F)c(-c2ccnc(N)n2)s1 [Dabrafenib] | 101.2 | 93.1 | 98.6 | 101.3 | 96.6 | 101.7 | 107.2 | 101.0 | 96.1 | 99.0 | 97.9 | 97.1 | 96.6 | 102.4 | 96.1 | 92.3 | 97.8 | 98.9 | 100.3 | 98.0 | Long-term stability, 6 weeks, 4°C, without daylight Accuracy [%] (validation standard MOV): 107.2%; Long-term stability, 1 month, -20°C Accuracy [%] (validation standard ULOV): 97.0%; Long-term stability, 1 month, -80°C Accuracy [%] (validation standard ULOV): 92.2%; Long-term stability, 2 month, -20°C Accuracy [%] (validation standard ULOV): 97.4%; Long-term stability, 2 month, -80°C Accuracy [%] (validation standard ULOV): 98.0%; Long-term stability, 3 month, -20°C Accuracy [%] (validation standard ULOV): 96.3%; Long-term stability, 3 month, -80°C Accuracy [%] (validation standard ULOV): 98.6%; Long-term stability, 6 weeks, 4°C, without daylight Accuracy [%] (validation standard ULOV): 100.6% |
| COc1cc2ncnc(Nc3ccc(F)c(Cl)c3)c2cc1NC(=O)/C=C/CN1CCCCC1 [Dacomitinib] | 94.4 | 91.2 | 96.1 | 107.1 | 89.4 | 94.7 | 62.3 | 86.5 | 87.2 | 96.8 | 105.1 | 83.4 | 96.1 | 61.0 | 91.7 | 95.2 | 95.1 | 99.2 | 90.9 | 99.4 | Long-term stability, 6 weeks, 4°C, without daylight Accuracy [%] (validation standard MOV): 79.1%; Long-term stability, 1 month, -20°C Accuracy [%] (validation standard ULOV): 93.0%; Long-term stability, 1 month, -80°C Accuracy [%] (validation standard ULOV): 93.2%; Long-term stability, 2 month, -20°C Accuracy [%] (validation standard ULOV): 96.3%; Long-term stability, 2 month, -80°C Accuracy [%] (validation standard ULOV): 99.6%; Long-term stability, 3 month, -20°C Accuracy [%] (validation standard ULOV): 90.3%; Long-term stability, 3 month, -80°C Accuracy [%] (validation standard ULOV): 97.6%; Long-term stability, 6 weeks, 4°C, without daylight Accuracy [%] (validation standard ULOV): 77.8% |
| Cc1nc(Nc2ncc(C(=O)Nc3c(C)cccc3Cl)s2)cc(N2CCN(CCO)CC2)n1 [Dasatinib] | 99.2 | 92.5 | 98.2 | 96.3 | 102.0 | 99.1 | 72.6 | 108.6 | 89.0 | 82.2 | 84.9 | 81.3 | 85.5 | 79.4 | 97.7 | 91.3 | 92.8 | 92.3 | 102.9 | 101.1 | Long-term stability, 6 weeks, 4°C, without daylight Accuracy [%] (validation standard MOV): 102.3%; Long-term stability, 1 month, -20°C Accuracy [%] (validation standard ULOV): 97.7%; Long-term stability, 1 month, -80°C Accuracy [%] (validation standard ULOV): 93.4%; Long-term stability, 2 month, -20°C Accuracy [%] (validation standard ULOV): 95.6%; Long-term stability, 2 month, -80°C Accuracy [%] (validation standard ULOV): 100.4%; Long-term stability, 3 month, -20°C Accuracy [%] (validation standard ULOV): 104.5%; Long-term stability, 3 month, -80°C Accuracy [%] (validation standard ULOV): 105.8%; Long-term stability, 6 weeks, 4°C, without daylight Accuracy [%] (validation standard ULOV): 97.9% |
| COC(=O)N[C@@H](C)CNc1nccc(-c2cn(C(C)C)nc2-c2cc(Cl)cc(NS(C)(=O)=O)c2F)n1 [Encorafenib] | 100.7 | 93.5 | 111.7 | 104.1 | 97.4 | 95.2 | 95.2 | 84.2 | 88.1 | 103.4 | 93.1 | 96.1 | 94.9 | 81.0 | 99.0 | 97.1 | 102.3 | 104.9 | 101.8 | 100.8 | Long-term stability, 6 weeks, 4°C, without daylight Accuracy [%] (validation standard MOV): 109.2%; Long-term stability, 1 month, -20°C Accuracy [%] (validation standard ULOV): 99.1%; Long-term stability, 1 month, -80°C Accuracy [%] (validation standard ULOV): 95.7%; Long-term stability, 2 month, -20°C Accuracy [%] (validation standard ULOV): 104.0%; Long-term stability, 2 month, -80°C Accuracy [%] (validation standard ULOV): 101.8%; Long-term stability, 3 month, -20°C Accuracy [%] (validation standard ULOV): 100.7%; Long-term stability, 3 month, -80°C Accuracy [%] (validation standard ULOV): 99.0%; Long-term stability, 6 weeks, 4°C, without daylight Accuracy [%] (validation standard ULOV): 101.7% |
| CNC(=O)c1ccc(N2C(=S)N(c3ccc(C#N)c(C(F)(F)F)c3)C(=O)C2(C)C)cc1F [Enzalutamide] | 92.7 | 87.8 | 91.5 | 92.9 | 87.1 | 89.0 | 96.8 | 92.6 | 82.3 | 90.2 | 94.8 | 88.7 | 88.4 | 97.2 | 90.3 | 90.6 | 92.8 | 95.7 | 91.6 | 90.6 | Long-term stability, 6 weeks, 4°C, without daylight Accuracy [%] (validation standard MOV): 105.1%; Long-term stability, 1 month, -20°C Accuracy [%] (validation standard ULOV): 85.8%; Long-term stability, 1 month, -80°C Accuracy [%] (validation standard ULOV): 86.1%; Long-term stability, 2 month, -20°C Accuracy [%] (validation standard ULOV): 90.8%; Long-term stability, 2 month, -80°C Accuracy [%] (validation standard ULOV): 90.3%; Long-term stability, 3 month, -20°C Accuracy [%] (validation standard ULOV): 87.7%; Long-term stability, 3 month, -80°C Accuracy [%] (validation standard ULOV): 87.3%; Long-term stability, 6 weeks, 4°C, without daylight Accuracy [%] (validation standard ULOV): 95.0% |
| C#Cc1cccc(Nc2ncnc3cc(OCCOC)c(OCCOC)cc23)c1 [Erlotinib] | 102.3 | 98.1 | 106.4 | 105.9 | 106.0 | 105.8 | 95.9 | 113.5 | 108.0 | 113.2 | 114.8 | 111.5 | 114.1 | 107.0 | 97.4 | 97.0 | 102.2 | 101.3 | 102.2 | 102.8 | Long-term stability, 6 weeks, 4°C, without daylight Accuracy [%] (validation standard MOV): 111.0%; Long-term stability, 1 month, -20°C Accuracy [%] (validation standard ULOV): 99.6%; Long-term stability, 1 month, -80°C Accuracy [%] (validation standard ULOV): 97.8%; Long-term stability, 2 month, -80°C Accuracy [%] (validation standard ULOV): 104.4%; Long-term stability, 3 month, -20°C Accuracy [%] (validation standard ULOV): 101.8%; Long-term stability, 3 month, -80°C Accuracy [%] (validation standard ULOV): 104.4%; Long-term stability, 6 weeks, 4°C, without daylight Accuracy [%] (validation standard ULOV): 103.7% |

From article PMC8699473, “An Easily Expandable Multi-Drug LC-MS Assay for the Simultaneous Quantification of 57 Oral Antitumor Drugs in Human Plasma” (Cancers, 2021)
